Measurements: the supplement of paper PMC9262897, “Low-cost anti-mycobacterial drug discovery using engineered E. coli” (Nature Communications, 2022)

Columns and labels:
[1] = system: E. coli TESEC Mtb Alr; assay: growth (OD600 after 10 h, mean); higher = more growth;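 note: E. coli lacking its native Alr, complemented by codon-optimized Mtb Alr under a feedback-controlled arabinose-inducible plasmid circuit, grown in defined medium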
Experimental: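 TESEC Mtb Alr E. coli grown in a two-dimensional dilution series of drug (µM) and arabinose (12 to 1e8 nM). Growth is read as OD600 after 10 h; values are means of 3 biological replicates.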

[2] = system: Efflux+; assay: growth (OD600 after 24 h); higher = more growth
Experimental: (§1)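 E. coli BW25113 ΔaraC (Efflux+) or efflux-pump deletion strains (ΔtolC ΔentC, ΔemrE, ΔmdtI, ΔyeeO, ΔmdtK, ΔmdtM) diluted 1:100 in M9-based medium with a drug dilution series. Growth is read as OD600 after 24 h; 3 biological replicates.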

[3] = system: ∆emrE; assay: growth (OD600 after 24 h); higher = more growth
Experimental: as §1

[4] = system: ∆mdtI; assay: growth (OD600 after 24 h); higher = more growth
Experimental: as §1

[5] = system: ∆mdtK; assay: growth (OD600 after 24 h); higher = more growth
Experimental: as §1

[6] = system: ∆mdtM; assay: growth (OD600 after 24 h); higher = more growth
Experimental: as §1

[7] = system: ∆tolC ∆entC; assay: growth (OD600 after 24 h); higher = more growth
Experimental: as §1

[8] = system: ∆yeeO; assay: growth (OD600 after 24 h); higher = more growth
Experimental: as §1

[9] = system: E. coli TESEC strain (Mtb target enzyme); assay: growth (OD600 after 10 h); higher = more growth
Experimental: (§2)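 Chemical-genetic validation profiles: TESEC strains (Mtb Asd or DapB, arabinose-inducible) or the wild-type control grown in a two-dimensional dilution series of drug (µM) and arabinose. Growth is read as OD600 after 10 h in triplicate.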

[10] = system: E. coli wild-type control; assay: growth (OD600 after 10 h); higher = more growth
Experimental: as §2

CC(C)c1ccc2oc3nc(N)c(C(=O)O)cc3c(=O)c2c1 [Amlexanox]
growth, [1]
Details | drug 15.62 µM | drug 31.25 µM | drug 62.5 µM | drug 125 µM | drug 250 µM
arabinose 12 nM | 0.4 | 0.356 | 0.319 | 0.272 | –
arabinose 24 nM | 0.391 | 0.357 | 0.317 | 0.266 | –
arabinose 48 nM | 0.385 | 0.352 | 0.318 | 0.261 | –
arabinose 95 nM | 0.382 | 0.348 | 0.31 | 0.265 | –
arabinose 191 nM | 0.377 | 0.349 | 0.319 | 0.262 | –
arabinose 381 nM | 0.378 | 0.346 | 0.309 | 0.259 | –
arabinose 763 nM | 0.382 | 0.348 | 0.305 | 0.261 | –
arabinose 1526 nM | 0.386 | 0.352 | 0.304 | 0.259 | 0.264
arabinose 3052 nM | 0.375 | 0.357 | 0.301 | 0.257 | 0.264
arabinose 6104 nM | 0.367 | 0.336 | 0.29 | 0.262 | 0.266
arabinose 12207 nM | 0.325 | 0.306 | 0.278 | 0.275 | 0.281
arabinose 24414 nM | 0.282 | 0.276 | 0.274 | 0.285 | –
arabinose 48828 nM | 0.264 | 0.266 | 0.28 | 0.295 | –
arabinose 97656 nM | 0.254 | 0.261 | 0.28 | 0.289 | –
arabinose 195312 nM | 0.268 | 0.273 | 0.291 | 0.284 | –
arabinose 390625 nM | 0.289 | 0.298 | 0.305 | 0.277 | –
arabinose 781250 nM | 0.31 | 0.317 | 0.304 | 0.268 | –
arabinose 1562500 nM | 0.312 | 0.313 | 0.297 | 0.265 | –
arabinose 3125000 nM | 0.307 | 0.302 | 0.292 | 0.259 | –
arabinose 6250000 nM | 0.301 | 0.297 | 0.286 | 0.255 | –
arabinose 12500000 nM | 0.302 | 0.293 | 0.284 | 0.248 | –
arabinose 25000000 nM | 0.298 | 0.299 | 0.282 | 0.235 | –
arabinose 50000000 nM | 0.286 | 0.282 | 0.259 | 0.213 | –
arabinose 100000000 nM | 0.216 | 0.212 | 0.216 | 0.16 | –

CN(Cc1cc(Br)cc(Br)c1N)C1CCCCC1 [Bromhexine]
growth
Details | [2] | [3] | [4] | [5] | [6] | [7] | [8]
drug 3 µM | 1.027 | 0.992 | 1.04 | 0.772 | 0.825 | 0.894 | 0.897
drug 6.25 µM | 0.989 | 1.08 | 1.01 | 0.792 | 0.819 | 0.989 | 0.881
drug 12.5 µM | 0.974 | 1.06 | 0.992 | 0.762 | 0.805 | 0.94 | 0.881
drug 25 µM | 0.9831 | 1.02 | 0.996 | 0.737 | 0.8363 | 0.564 | 0.8876
drug 50 µM | 1 | 1.02 | 0.994 | 0.743 | 0.8474 | 0.05317 | 0.905
drug 100 µM | 0.998 | 1.04 | 0.9907 | 0.7706 | 0.8478 | 0.0597 | 0.917

CN(Cc1cc(Br)cc(Br)c1N)C1CCCCC1 [Bromhexine] (TESEC target enzyme: Mtb Asd)
growth
Details | drug 0.3 µM | drug 0.8 µM | drug 1.7 µM | drug 3.9 µM | drug 8.8 µM | drug 19.8 µM | drug 44.4 µM
[9], arabinose 15560 nM | 0.18 | 0.153 | – | – | – | – | –
[9], arabinose 28008 nM | 0.229 | 0.178 | – | – | – | – | –
[9], arabinose 50414 nM | 0.207 | 0.177 | – | – | – | – | –
[9], arabinose 90744 nM | 0.215 | 0.211 | – | – | – | – | –
[9], arabinose 163340 nM | 0.257 | 0.239 | – | – | – | – | –
[9], arabinose 294012 nM | 0.293 | 0.302 | – | – | – | – | –
[9], arabinose 529221 nM | 0.32 | 0.291 | – | – | – | – | –
[9], arabinose 952599 nM | 0.355 | 0.368 | – | – | – | – | –
[9], arabinose 1714678 nM | 0.336 | 0.387 | – | – | – | – | –
[9], arabinose 3086420 nM | 0.328 | 0.361 | – | – | – | – | –
[9], arabinose 5555556 nM | 0.321 | 0.333 | – | – | – | – | –
[9], arabinose 10000000 nM | 0.341 | 0.34 | – | – | – | – | –
[10], arabinose 15560 nM | 0.134 | 0.163 | 0.156 | 0.16 | 0.172 | 0.162 | –
[10], arabinose 28008 nM | 0.149 | 0.159 | 0.162 | 0.172 | 0.164 | 0.1736 | –
[10], arabinose 50414 nM | 0.17 | 0.144 | 0.17 | 0.16 | 0.157 | 0.172 | –
[10], arabinose 90744 nM | 0.167 | 0.21 | 0.174 | 0.193 | 0.178 | 0.177 | –
[10], arabinose 163340 nM | 0.157 | 0.178 | 0.161 | 0.187 | 0.146 | 0.194 | –
[10], arabinose 294012 nM | 0.156 | 0.191 | 0.204 | 0.229 | 0.182 | 0.198 | –
[10], arabinose 529221 nM | 0.18 | 0.202 | 0.201 | 0.194 | 0.186 | 0.221 | –
[10], arabinose 952599 nM | 0.238 | 0.231 | 0.209 | 0.214 | 0.214 | 0.236 | 0.203
[10], arabinose 1714678 nM | 0.213 | 0.221 | 0.208 | 0.232 | 0.223 | 0.253 | 0.198
[10], arabinose 3086420 nM | 0.207 | 0.23 | 0.212 | 0.254 | 0.204 | 0.267 | 0.235
[10], arabinose 5555556 nM | 0.189 | 0.214 | 0.206 | 0.198 | 0.201 | 0.218 | 0.232
[10], arabinose 10000000 nM | 0.174 | 0.21 | 0.163 | 0.217 | 0.173 | 0.21 | –

N[C@@H]1CONC1=O [D-cycloserine]
growth, [1]
Details | drug 7.81 µM | drug 15.62 µM | drug 31.25 µM | drug 62.5 µM | drug 125 µM
arabinose 12 nM | 0.367 | 0.327 | 0.0519 | 0.0505 | –
arabinose 24 nM | 0.363 | 0.325 | 0.0523 | 0.0512 | –
arabinose 48 nM | 0.367 | 0.326 | 0.0519 | 0.0518 | –
arabinose 95 nM | 0.358 | 0.336 | 0.0543 | 0.0501 | –
arabinose 191 nM | 0.376 | 0.332 | 0.121 | 0.0494 | –
arabinose 381 nM | 0.373 | 0.348 | 0.254 | 0.05 | –
arabinose 763 nM | 0.382 | 0.365 | 0.305 | 0.0501 | –
arabinose 1526 nM | 0.38 | 0.373 | 0.349 | 0.131 | 0.0482
arabinose 3052 nM | 0.367 | 0.373 | 0.386 | 0.29 | 0.0489
arabinose 6104 nM | 0.357 | 0.356 | 0.411 | 0.348 | 0.0678
arabinose 12207 nM | 0.329 | 0.328 | 0.375 | 0.378 | 0.251
arabinose 24414 nM | 0.288 | 0.298 | 0.315 | 0.371 | –
arabinose 48828 nM | 0.285 | 0.291 | 0.29 | 0.341 | –
arabinose 97656 nM | 0.29 | 0.284 | 0.292 | 0.306 | –
arabinose 195312 nM | 0.306 | 0.3 | 0.311 | 0.31 | –
arabinose 390625 nM | 0.318 | 0.32 | 0.322 | 0.327 | –
arabinose 781250 nM | 0.307 | 0.304 | 0.312 | 0.32 | –
arabinose 1562500 nM | 0.282 | 0.283 | 0.29 | 0.294 | –
arabinose 3125000 nM | 0.269 | 0.264 | 0.272 | 0.276 | –
arabinose 6250000 nM | 0.253 | 0.247 | 0.25 | 0.252 | –
arabinose 12500000 nM | 0.237 | 0.234 | 0.248 | 0.239 | –
arabinose 25000000 nM | 0.225 | 0.229 | 0.227 | 0.231 | –
arabinose 50000000 nM | 0.195 | 0.204 | 0.199 | 0.204 | –
arabinose 100000000 nM | 0.154 | 0.163 | 0.16 | 0.16 | –
